Changes are numbered by the printed parent chain. In names and notes the source's numbering stands. One block for each molecule: values may come before it.
Legend:
HLA-A*11:01 = HLA-A*11:01 (Homo sapiens, UniProt P04439, A114D/D185E/E176A/F33Y/L180Q/S129P/T187R); assay: REVEAL Epitope Discovery System in vitro MHC-peptide binding assay, HLA-A*11:01; settings: binding normalized to positive control peptide set at 100%, score >50 considered good or high affinity binding
Description: (§1) Actual binding affinities for certain HLA class I alleles (A*02:01, A*03:01, A*11:01, and B*08:01) were assessed in vitro for exemplary overlapping 9 amino acid peptide sequences within a portion of the 26 amino acid junction region spanning the CD28 and 4-1BB junction. Specifically, assessment was of a series of overlapping 9-mer peptides derived from the sequence […] (set forth in SEQ ID NO: 7), which contains a portion of the CD28 transmembrane domain and 4-1BB costimulatory domain spanning the junction between the domains (bond joining the two amino acids noted in underline). In addition, a series of overlapping 9-mer peptides of each of a number of different variants of this portion also were assessed, each variant containing a mutation or mutations in this region as described in Example 2.
(§2) The various 9-mer overlapping peptides were synthesized and their purity tested by MALDI-TOF Mass Spectrometry. The synthetic peptides were then incubated with recombinant MHC molecules to assess binding properties using the REVEAL Epitope Discovery System, which is a high-throughput binding assay that measures the degree to which each peptide is able to stabilize a ternary MHC-peptide complex (ProImmune, Oxford, United Kingdom). Each peptide was separately tested for this ability with respect to each of the HLA class I alleles, normalized to the degree observed for a positive control (known T cell epitope for the relevant allele). The results are reported as a score, in which the binding was normalized to the positive control peptide set at 100%.

HLA-B*08:01 = HLA-B*08:01 (Homo sapiens, UniProt P01889, A93T/A95T/D138N/E176V/E187T/K202T/Q94N/R180D/S35A/V36M/Y33D/Y91F); assay: REVEAL Epitope Discovery System in vitro MHC-peptide binding assay, HLA-B*08:01; settings: binding normalized to positive control peptide set at 100%, score >50 considered good or high affinity binding
Description: as §1, §2

[1] = tested on: HLA class I alleles (A*02:01, A*03:01, A*11:01, and B*08:01); assay: Comparison of in silico and in vitro binding of variant junction peptides to HLA class I alleles (summary); set-up: species or system human; settings: without higher binding affinity to another HLA allele or for another peptide
Description: as §1, §2
The results were compared to predicted binding (IC50) values obtained for binding of the same peptide:MHC complex, using the in silico prediction methods as described in Example 2. Since the maximum IC50 value predicted was about 50,000, the IC50 values were log transformed, subtracted from LOG(50000) and divided by LOG(50000) to obtain a normalized in silico score ((Log(50000)−log IC50)/Log(50000)). […]

Molecule: IIFWVQRGA [junction 9-mer, peptide 4, mutation K29Q/R32A]
In Vitro Score (A*11:01) (HLA-A*11:01): 56.50
In Vitro Score (B*08:01) (HLA-B*08:01): 0.20

Molecule: VAFIIFWVK
In Vitro Score (A*11:01) (HLA-A*11:01): 109.20
In Vitro Score (B*08:01) (HLA-B*08:01): 0.30

Molecule: IIFWVKRGA [junction 9-mer, peptide 4, mutation R32A]
In Vitro Score (A*11:01) (HLA-A*11:01): 22.60
In Vitro Score (B*08:01) (HLA-B*08:01): 0.90

Molecule: IIFWVARGR [junction 9-mer, peptide 4, mutation K29A]
In Vitro Score (A*11:01) (HLA-A*11:01): 70.60
In Vitro Score (B*08:01) (HLA-B*08:01): 0.30

Molecule: IIFWVKRGS [junction 9-mer, peptide 4, mutation R32S]
In Vitro Score (A*11:01) (HLA-A*11:01): 100.00
In Vitro Score (B*08:01) (HLA-B*08:01): 0.40

Molecule: IIFWVKRGN [junction 9-mer, peptide 4, mutation R32N]
In Vitro Score (A*11:01) (HLA-A*11:01): 42.10
In Vitro Score (B*08:01) (HLA-B*08:01): 0.90

Molecule: VAFIIFWVR [junction 9-mer, peptide 1, mutation K29R]
In Vitro Score (A*11:01) (HLA-A*11:01): 34.60
In Vitro Score (B*08:01) (HLA-B*08:01): 0.10

Molecule: IIFWVHRGR [junction 9-mer, peptide 4, mutation K29H]
In Vitro Score (A*11:01) (HLA-A*11:01): 77.50
In Vitro Score (B*08:01) (HLA-B*08:01): 0.20

Molecule: IIFWVKRGL [junction 9-mer, peptide 4, mutation R32L]
In Vitro Score (A*11:01) (HLA-A*11:01): 32.40
In Vitro Score (B*08:01) (HLA-B*08:01): 1.70

Molecule: IIFWVSRGR [junction 9-mer, peptide 4, mutation K29S]
In Vitro Score (A*11:01) (HLA-A*11:01): 68.90
In Vitro Score (B*08:01) (HLA-B*08:01): 0.00

Molecule: IFWVHRGRK [junction 9-mer, peptide 5, mutation K29H]
In Vitro Score (A*11:01) (HLA-A*11:01): 36.60
In Vitro Score (B*08:01) (HLA-B*08:01): 0.10

Molecule: VAFIIFWVS [junction 9-mer, peptide 1, mutation K29S]
In Vitro Score (A*11:01) (HLA-A*11:01): 25.10
In Vitro Score (B*08:01) (HLA-B*08:01): 0.10

Molecule: IFWVARGRK [junction 9-mer, peptide 5, mutation K29A]
In Vitro Score (A*11:01) (HLA-A*11:01): 34.90
In Vitro Score (B*08:01) (HLA-B*08:01): 0.00

Molecule: AFIIFWVHR [junction 9-mer, peptide 2, mutation K29H]
In Vitro Score (A*11:01) (HLA-A*11:01): 34.90
In Vitro Score (B*08:01) (HLA-B*08:01): 0.30

Molecule: FIIFWVHRG [junction 9-mer, peptide 3, mutation K29H]
In Vitro Score (A*11:01) (HLA-A*11:01): 0.90
In Vitro Score (B*08:01) (HLA-B*08:01): 0.20

Molecule: AFIIFWVSR [junction 9-mer, peptide 2, mutation K29S]
In Vitro Score (A*11:01) (HLA-A*11:01): 54.00
In Vitro Score (B*08:01) (HLA-B*08:01): 0.30

Molecule: IFWVQRGAK [junction 9-mer, peptide 5, mutation K29Q/R32A]
In Vitro Score (A*11:01) (HLA-A*11:01): 61.30
In Vitro Score (B*08:01) (HLA-B*08:01): 0.20

Molecule: IIFWVQRGR [junction 9-mer, peptide 4, mutation K29Q]
In Vitro Score (A*11:01) (HLA-A*11:01): 72.80
In Vitro Score (B*08:01) (HLA-B*08:01): 0.10

Molecule: IIFWVLRGR [junction 9-mer, peptide 4, mutation K29L]
In Vitro Score (A*11:01) (HLA-A*11:01): 35.20
In Vitro Score (B*08:01) (HLA-B*08:01): 0.40

Molecule: IIFWVKRGR
In Vitro Score (A*11:01) (HLA-A*11:01): 54.50
In Vitro Score (B*08:01) (HLA-B*08:01): 0.00

Molecule: AFIIFWVAR [junction 9-mer, peptide 2, mutation K29A]
In Vitro Score (A*11:01) (HLA-A*11:01): 51.80
In Vitro Score (B*08:01) (HLA-B*08:01): 0.20

B1: R31H: variant CAR junction region, replacement numbered per SEQ ID NO:5 (protein)
chain: FWVLVVVGGVLACYSLLVTVAFIIFWVKRGHKKLLYIFKQPFMRPVQTTQEEDGCSCRFPEEEEGGCEL
modifications: CD28-4-1BB
predicted or actual binding affinity or score for at least one HLA allele and/or at least one peptide [1]: reduced

B2: L34S: variant CAR junction region, replacement numbered per SEQ ID NO:5 (protein)
chain: B1 chain with H31R, L34S
modifications: CD28-4-1BB
predicted or actual binding affinity or score for at least one HLA allele and/or at least one peptide [1]: reduced

B3: L34A: variant CAR junction region, replacement numbered per SEQ ID NO:5 (protein)
chain: B1 chain with H31R, L34A
modifications: CD28-4-1BB
predicted or actual binding affinity or score for at least one HLA allele and/or at least one peptide [1]: reduced

Second part, the molecule after the results:

In Vitro Score (A*11:01) (HLA-A*11:01): 13.80
In Vitro Score (B*08:01) (HLA-B*08:01): 32.40
Molecule: WVARGRKKL [junction 9-mer, peptide 7, mutation K29A]

In Vitro Score (A*11:01) (HLA-A*11:01): 12.80
In Vitro Score (B*08:01) (HLA-B*08:01): 45.10
Molecule: WVQRGRKKL [junction 9-mer, peptide 7, mutation K29Q]

In Vitro Score (A*11:01) (HLA-A*11:01): 10.70
In Vitro Score (B*08:01) (HLA-B*08:01): 32.00
Molecule: WVQRGNKKL [junction 9-mer, peptide 7, mutation K29Q/R32N]

In Vitro Score (A*11:01) (HLA-A*11:01): 4.10
In Vitro Score (B*08:01) (HLA-B*08:01): 65.90
Molecule: WVKRGNKKL [junction 9-mer, peptide 7, mutation R32N]

In Vitro Score (A*11:01) (HLA-A*11:01): 30.90
In Vitro Score (B*08:01) (HLA-B*08:01): 3.20
Molecule: IFWVKRGHK [junction 9-mer, peptide 5, mutation R32H]

In Vitro Score (A*11:01) (HLA-A*11:01): 67.50
In Vitro Score (B*08:01) (HLA-B*08:01): 0.10
Molecule: IFWVQRGNK [junction 9-mer, peptide 5, mutation K29Q/R32N]

In Vitro Score (A*11:01) (HLA-A*11:01): 61.10
In Vitro Score (B*08:01) (HLA-B*08:01): 58.30
Molecule: IFWVKRGLK [junction 9-mer, peptide 5, mutation R32L]

In Vitro Score (A*11:01) (HLA-A*11:01): 45.90
In Vitro Score (B*08:01) (HLA-B*08:01): 0.10
Molecule: IFWVKRGNK [junction 9-mer, peptide 5, mutation R32N]

In Vitro Score (A*11:01) (HLA-A*11:01): 4.60
In Vitro Score (B*08:01) (HLA-B*08:01): 34.10
Molecule: WVKRGAKKL [junction 9-mer, peptide 7, mutation R32A]

In Vitro Score (A*11:01) (HLA-A*11:01): 47.90
In Vitro Score (B*08:01) (HLA-B*08:01): 1.20
Molecule: IFWVKRGSK [junction 9-mer, peptide 5, mutation R32S]

In Vitro Score (A*11:01) (HLA-A*11:01): 2.80
In Vitro Score (B*08:01) (HLA-B*08:01): 47.60
Molecule: WVKRGHKKL [junction 9-mer, peptide 7, mutation R32H]

In Vitro Score (A*11:01) (HLA-A*11:01): 69.70
In Vitro Score (B*08:01) (HLA-B*08:01): 2.20
Molecule: IFWVKRGAK [junction 9-mer, peptide 5, mutation R32A]

In Vitro Score (A*11:01) (HLA-A*11:01): 128.50
In Vitro Score (B*08:01) (HLA-B*08:01): 0.00
Molecule: IFWVQRGRK [junction 9-mer, peptide 5, mutation K29Q]

In Vitro Score (A*11:01) (HLA-A*11:01): 11.80
In Vitro Score (B*08:01) (HLA-B*08:01): 56.10
Molecule: WVKRGSKKL [junction 9-mer, peptide 7, mutation R32S]

In Vitro Score (A*11:01) (HLA-A*11:01): 8.90
Molecule: FWVARGRKK [junction 9-mer, peptide 6, mutation K29A]

In Vitro Score (A*11:01) (HLA-A*11:01): 39.20
In Vitro Score (B*08:01) (HLA-B*08:01): 0.00
Molecule: IFWVSRGRK [junction 9-mer, peptide 5, mutation K29S]

— patent US11266739B2, “Methods and compositions for adoptive cell therapy” (Juno Therapeutics, Inc., priority 2014, dated 2022)
